How the values were obtained:
[1] = target: Beta-lactamase (Enterobacter cloacae) (UniProt P05364); test: Tested for the inhibitory activity against beta-lactamase, Enterobacter cloacae at dose of 0.1 ug/mL using substrate cephaloridine (CER)
[2] = target: Beta-lactamase (Enterobacter cloacae) (UniProt P05364); test: Tested for the inhibitory activity against beta-lactamase, Enterobacter cloacae at dose of 10 ug/mL using substrate cephaloridine (CER); (E. Cloacae enzyme activity is 1.1517 U/ml)
[3] = target: Beta-lactamase (Pseudomonas aeruginosa (strain ATCC 15692 / PAO1 / 1C / PRS 101 / LMG12228)) (UniProt P24735); test: Tested for the inhibitory activity against beta-lactamase, Pseudomonas aeruginosa at dose of 10 ug/mL using substrate cephaloridine (CER); (P. Aeruginosa enzyme activity is 1.0352 U/ml)
[4] = target: TEM-1 beta-lactamase (Escherichia coli) (UniProt P62593); test: Tested for the inhibitory activity against beta-lactamase type TEM-1 at dose of 10 ug/mL using substrate ampicillin (ABPC)
[5] = target: TEM-1 beta-lactamase (Escherichia coli) (UniProt P62593); test: Tested for the inhibitory activity against beta-lactamase type TEM-1 at dose of 0.1 ug/mL using substrate ampicillin (ABPC); (TEM-1 enzyme activity is 1.6328 U/mL)
[6] = Tested for the inhibitory activity against beta-lactamase type CTX-1 at dose of 10 ug/mL using substrate cephaloridine (CER); (CTX-1 enzyme activity is 0.7363 U/ml)
[7] = target: Beta-lactamase (Enterobacter cloacae) (UniProt P05364); test: Tested for the inhibitory activity against beta-lactamase, Enterobacter cloacae at dose of 0.66 ug/mL using substrate cephaloridine (CER)
[8] = target: Beta-lactamase (Enterobacter cloacae) (UniProt P05364); test: Tested for the inhibitory activity against beta-lactamase, Enterobacter cloacae at dose of 0.66 ug/mL using substrate cephaloridine (CER); (E. Cloacae enzyme activity is 1.1517 U/ml)
[9] = target: Beta-lactamase (Pseudomonas aeruginosa (strain ATCC 15692 / PAO1 / 1C / PRS 101 / LMG12228)) (UniProt P24735); test: Tested for the inhibitory activity against beta-lactamase, Pseudomonas aeruginosa at dose of 0.66 ug/mL using substrate cephaloridine (CER); (P. Aeruginosa enzyme activity is 1.0352 U/ml)
[10] = target: TEM-1 beta-lactamase (Escherichia coli) (UniProt P62593); test: Tested for the inhibitory activity against beta-lactamase type TEM-1 at dose of 0.66 ug/mL using substrate ampicillin (ABPC); (TEM-1 enzyme activity is 1.6328 U/mL)
[11] = Tested for the inhibitory activity against beta-lactamase type CTX-1 at dose of 0.66 ug/mL using substrate cephaloridine (CER); (CTX-1 enzyme activity is 0.7363 U/ml)

Chain of Beta-lactamase (Enterobacter cloacae) (P05364 21-381 limits assumed): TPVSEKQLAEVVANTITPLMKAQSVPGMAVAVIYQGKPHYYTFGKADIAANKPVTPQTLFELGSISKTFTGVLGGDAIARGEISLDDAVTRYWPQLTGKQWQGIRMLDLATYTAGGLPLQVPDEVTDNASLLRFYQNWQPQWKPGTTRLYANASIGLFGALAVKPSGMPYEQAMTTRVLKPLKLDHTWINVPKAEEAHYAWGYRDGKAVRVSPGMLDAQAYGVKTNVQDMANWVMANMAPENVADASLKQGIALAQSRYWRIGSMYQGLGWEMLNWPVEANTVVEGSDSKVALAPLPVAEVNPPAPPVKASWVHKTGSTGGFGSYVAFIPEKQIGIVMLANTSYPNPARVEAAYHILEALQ
Chain of TEM-1 beta-lactamase (Escherichia coli) (P62593 whole entry, looked up): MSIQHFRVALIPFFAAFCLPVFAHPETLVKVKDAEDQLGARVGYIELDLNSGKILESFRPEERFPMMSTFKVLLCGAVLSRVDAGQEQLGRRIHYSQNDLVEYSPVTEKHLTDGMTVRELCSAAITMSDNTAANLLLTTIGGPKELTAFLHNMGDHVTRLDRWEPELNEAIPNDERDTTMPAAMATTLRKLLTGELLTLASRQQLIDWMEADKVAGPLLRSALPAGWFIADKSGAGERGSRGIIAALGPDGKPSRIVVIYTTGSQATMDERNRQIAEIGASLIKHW
Chain of Beta-lactamase (Pseudomonas aeruginosa (strain ATCC 15692 / PAO1 / 1C / PRS 101 / LMG12228)) (P24735 27-397 limits assumed): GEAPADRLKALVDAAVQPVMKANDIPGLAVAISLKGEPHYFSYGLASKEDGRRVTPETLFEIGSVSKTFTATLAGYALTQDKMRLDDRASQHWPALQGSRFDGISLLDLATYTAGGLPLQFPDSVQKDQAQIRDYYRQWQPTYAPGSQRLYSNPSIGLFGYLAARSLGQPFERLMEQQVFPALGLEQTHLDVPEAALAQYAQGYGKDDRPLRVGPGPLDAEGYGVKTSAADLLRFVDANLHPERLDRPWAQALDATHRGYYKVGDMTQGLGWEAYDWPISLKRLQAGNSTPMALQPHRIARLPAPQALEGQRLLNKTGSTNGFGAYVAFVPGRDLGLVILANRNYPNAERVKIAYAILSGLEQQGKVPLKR

Cn1nnnc1SC1=C(C(=O)OC(c2ccccc2)c2ccccc2)N2C(=O)C[C@H]2S1
inhibition [1]: 10% | inhibition [2]: 45% | inhibition [3]: 16% | inhibition [4]: 28% | inhibition [5]: 2% | inhibition [6]: 19%

Cc1nnc(SC2=C(C(=O)OC(c3ccccc3)c3ccccc3)N3C(=O)C[C@H]3S2)s1
inhibition [7]: 8% | inhibition [8]: 14% | inhibition [9]: 0% | inhibition [10]: 6% | inhibition [11]: 12%
